The numbers were not newly measured in paper PMC12299890 (Pharmaceuticals, 2025), which cites them from elsewhere.

Details of this series: method as in PMID 27121673. To be noted: cited from earlier work.

Where two headings read alike, the source gives them in different places.

Turning to `O[C@H]1[C@H](O)[C@@H](O)[C@H](O)[C@@H](O)[C@@H]1O` [SCI, scyllo-inositol], the “Time of maximum plasma concentration” value (after the last dose, 2000 mg two times a day for 10 days) is 2.9 h. Further, the “AUC of SCI in CSF” value runs as follows: (day 1, oral 2000 mg two times a day) 49.4 µg·h/mL; (day 11, oral 2000 mg two times a day) 153.0 µg·h/mL. Moreover, the “Increase of brain concentration of SCI during the study” value (oral 2000 mg two times a day for 10 days) is 58–76%. For the setting “oral 2000 mg two times a day”, the Side effects reported result was “No side effects”. In addition, where the note is “plasma, after first oral dose of 2000 mg twice a day”, the “Time of peak SCI plasma concentration” value was 3.8 h.
